We go through 41 compounds from ChEMBL document CHEMBL1201862, “PubChem BioAssay data set” (2004).

For assay [1], the target named is T1, Streptokinase A (Streptococcus pyogenes serotype M1, UniProt P10520).
T1 sequence (P10520 whole entry): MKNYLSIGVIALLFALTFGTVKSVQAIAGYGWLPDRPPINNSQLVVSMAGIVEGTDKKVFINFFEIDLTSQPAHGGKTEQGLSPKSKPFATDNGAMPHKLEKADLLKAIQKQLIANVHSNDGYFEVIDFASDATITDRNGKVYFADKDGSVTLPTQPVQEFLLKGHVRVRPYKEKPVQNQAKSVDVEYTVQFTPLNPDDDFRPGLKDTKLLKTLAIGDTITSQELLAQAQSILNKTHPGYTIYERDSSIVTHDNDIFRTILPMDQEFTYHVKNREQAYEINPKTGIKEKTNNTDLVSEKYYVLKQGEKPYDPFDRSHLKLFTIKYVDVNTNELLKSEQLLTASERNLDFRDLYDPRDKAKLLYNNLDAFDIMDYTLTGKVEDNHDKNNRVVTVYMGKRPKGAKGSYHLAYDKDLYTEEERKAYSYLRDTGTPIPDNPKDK
The assay can be described thus: S. pyogenes streptokinase expression inhibitors, potency, dose response, plasminogen activation absorbance, OD405 (AID 1914).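 Also: secreted streptokinase activity via plasminogen activation per viability signal from cell pellet.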 The assay is classed as functional, Streptococcus pyogenes M1 GAS.

For assay [2], the system named is Streptococcus sp. 'group A'. The experiment in a line: growth inhibition of control SK(-) GAS strain, dose response, counter-screen for streptokinase expression inhibitor project, luminescence, kanamycin, BacTiterGlo, confirmation (AID 1900). Format: functional, organism-based. A general note: The purpose of a counterscreen is to sort out artefacts and off-target activity.

For assay [3], the system named is Streptococcus. The assay can be described thus: Group A Streptococcus viability loss, dose response, counter-screen for streptokinase expression inhibitor project, luminescence, BacTiterGlo (AID 1915).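 Also: potency for reduction of bacterial viability or growth.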 The assay is classed as functional, organism-based.
Assay [4] concerns the target T2, Cytochrome P450 1A2 (Homo sapiens, UniProt P05177).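 Also: PubChem cytochrome P450 panel assay, CYP1A2 panel member.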
T2 sequence (P05177 whole entry): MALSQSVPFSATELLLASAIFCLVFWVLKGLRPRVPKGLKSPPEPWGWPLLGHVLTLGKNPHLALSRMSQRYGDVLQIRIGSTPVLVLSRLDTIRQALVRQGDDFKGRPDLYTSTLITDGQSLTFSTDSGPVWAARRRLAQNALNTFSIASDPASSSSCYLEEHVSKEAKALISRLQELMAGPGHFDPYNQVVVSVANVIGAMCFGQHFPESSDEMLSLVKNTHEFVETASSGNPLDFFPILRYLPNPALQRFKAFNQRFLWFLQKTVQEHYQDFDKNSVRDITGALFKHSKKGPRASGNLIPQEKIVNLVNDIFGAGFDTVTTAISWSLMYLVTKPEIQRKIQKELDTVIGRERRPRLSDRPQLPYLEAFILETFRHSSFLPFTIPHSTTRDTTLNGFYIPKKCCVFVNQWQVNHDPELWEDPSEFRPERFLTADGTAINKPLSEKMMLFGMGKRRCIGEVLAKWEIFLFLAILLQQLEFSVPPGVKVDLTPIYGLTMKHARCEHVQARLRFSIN

Assay [5] is described as follows: inhibitors of intracellular T. cruzi replication, confirmation, NIH3T3 host cells, beta-gal luminescence (AID 2044).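 Also: intracellular parasites grown in NIH/3T3 mouse fibroblasts as host cells; luminescent beta-galactosidase reporter signal from transgenic T. cruzi replicating inside host cells; inhibitors lower the luminescence signal.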 The assay is classed as functional, cell-based.
Assay [6] can be described thus: cytotoxicity toward NIH3T3 fibroblasts, dose response, counter-screen, cell-based, ATP luminescence, mouse fibroblasts (AID 2010).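 Also: cells exposed to compound for about 90 hours before reading.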 The assay is classed as functional.
Assay [7] in a line: Luminescence Cell-Based Dose Retest to Confirm Inhibitors of Cancer Stem Cells. [Related pubchem assays (depositor defined):AID2717, AID2721]. Format: functional. The note with it: Homo sapiens.

Activity calls are given as the source filed them. Rule as the data show it, for most assays here: actives have a measured EC50 and inactives only a lower limit. Bounds are passed on as bounds.

Turning to `FC(F)(F)c1cccc(NC(=S)Nc2ccc(Cl)c(Cl)c2)c1`, the EC50 (in general, the midpoint of the concentration-response curve) in assay [1] is given as > 150 µM (not active).
Consider `FC(F)(F)c1cccc(NC(S)=Nc2ccc(Cl)c(Cl)c2)c1`, for which the EC50 in assay [2] was 2.45 µM (active); in assay [3], 6.78 µM (active).
Take `CCNc1ncc2nc(-c3cn(C)c4ccccc34)c(=O)n(C[C@H]3CCCO3)c2n1`: the AC50 (as a rule, the concentration at which the activity in the assay is half-maximal) in assay [4] is 10 µM (inconclusive).
As for `Cc1[nH]c2ccc(F)cc2c1CCN(Cc1cccnc1)C(S)=Nc1cccc(F)c1`, the half-maximal effective concentration (EC50) in assay [5] is 0.608 µM (active); in assay [6] it was > 30 µM (not active).
Regarding `COc1ccc(NC2=NN=C(c3c(C)[nH]c4ccccc34)CS2)cc1`, the AC50 in assay [7] is 7.35 µM (active). The EC50 is 3.9 µM (active) in assay [2], > 150 µM (not active) in assay [1] and 13 µM (active) in assay [3].
As to `COc1cccc(N2C(=O)C3NN=C(C(=O)CN4C(=O)c5ccccc5C4=O)C3C2=O)c1` (stereo unspecified), the EC50 in assay [2], in assay [1] and in assay [3] was > 150 µM (not active) throughout.
For `COc1cc2c(cc1NC(=O)CN(C)Cc1cccc(OC)c1OC)oc1ccccc12`, the AC50 in assay [7] was 2.86 µM (active).
For the compound `O=C(Nc1cccc(Cl)c1N1CCCCC1)c1ccc2c(c1)OCCO2`, the AC50 in assay [7] is 7.74 µM (active). Moreover, the EC50 in assay [2] was 9.41 µM (active); in assay [1], > 150 µM (not active); in assay [3], > 150 µM (not active).
Take `Cc1cccc(OCCCOc2cccc3cccnc23)c1C`: the EC50 in assay [2] was 16.9 µM (active); in assay [1] it was > 150 µM (not active); in assay [3], > 150 µM (not active).
Regarding `CCCCCCCCCCCCCCCCCCc1ccc(C(=O)/C=C\C(=O)O)cc1`, the AC50 in assay [4] was 31.6 µM (inconclusive).
Consider `Cc1ccc(CCNc2c([N+](=O)[O-])nn(-c3ccccc3)[n+]2[O-])cc1`, for which the EC50 in assay [5] is 1.15 µM (active); in assay [6], > 30 µM (not active).
For the compound `CC(NNc1ccccc1)=C1C(=O)NC(=O)NC1=O`, the AC50 in assay [7] was 1.02 µM (active).
With `COC(=O)c1ccc(/C=C/c2c(-c3ccsc3)sc3ccccc23)cc1`, the half-maximal activity concentration (AC50) in assay [7] is 4.12 µM (active).
Take `c1ccc(N2N=C(c3cccs3)CC2c2ccco2)cc1` (stereo unspecified): the concentration giving a half-maximal response (EC50) is > 150 µM (not active) in assay [2], 40.1 µM (active) in assay [1] and > 150 µM (not active) in assay [3].
As to `CCN(CC)C1CCN(C(=O)c2cc(COc3ccc(F)cc3Cl)on2)C1` (stereo unspecified), the AC50 in assay [7] was 1.21 µM (active).
With `CC(=O)OCC1=C(C(=O)O)N2C(=O)C(NC(=O)CCn3nc(C)c(Cl)c3C)C2SC1` (stereo unspecified), the results for the EC50 in assay [2] and in assay [3] were 2.13 µM (active) and 1.31 µM (active), respectively.
Regarding `Cn1c(Sc2ccccc2Cl)c(C=O)c2ccccc21`, the EC50 was 27.1 µM (active) in assay [2], 32.3 µM (inconclusive) in assay [1] and > 150 µM (not active) in assay [3].
Take `O=C(/C=C/c1cccc(F)c1)NC1CCN(Cc2ccccc2)CC1`: the concentration giving a half-maximal response (EC50) in assay [5] was 0.102 µM (active); in assay [6], > 60 µM (not active).
For `CC1CCN(c2ccccc2NC(=O)c2cc3ccccc3o2)CC1`, the values for the concentration for a half-maximal effect (EC50) in assay [2], in assay [1] and in assay [3] were 8.15 µM (active), 25.2 µM (active) and 42.4 µM (active), respectively.
With `O=C(O)c1ccc(NC(=S)NC(=O)c2cccc(COc3ccccc3)c2)cc1`, the EC50 in assay [2] is 18.6 µM (active); in assay [3], 38 µM (active).
Take `CCCCn1c(=O)c(C(=O)NCCc2ccccc2)c(O)c2ccccc21`: the EC50 was 26.4 µM (active) in assay [2], 30.9 µM (active) in assay [1] and > 150 µM (not active) in assay [3].
For `O=C(NNC(=S)NC(=O)c1ccc(Br)cc1)c1cccc([N+](=O)[O-])c1` the same measures were 2.41 µM (active), > 150 µM (not active) and 9.6 µM (active).
Turning to `CC(=O)c1ccc(N2CCN(S(=O)(=O)c3cc(-c4cc(C)no4)ccc3C(C)C)CC2)cc1`, the AC50 in assay [7] was < 0.16 µM (active).
`CCOC(=O)c1ccc(N2C(=O)/C(=C\NNC(=O)C3COc4ccccc4O3)c3ccccc3C2=O)cc1` (stereo unspecified): the EC50 in assay [2] was 1.02 µM (active); in assay [3] it was 4.31 µM (active).
`CC(C)(c1ccc(OC[C@@H]2CO2)cc1)c1ccc(OC[C@H]2CO2)cc1`: the AC50 in assay [4] was 31.6 µM (inconclusive).
Take `Cc1cc(C)c(OCC(=O)Nc2ccccc2N2CCCCC2)c(C)c1`: the EC50 is 25.7 µM (active) in assay [2], 4.09 µM (active) in assay [1] and 15.7 µM (active) in assay [3].
`CCOc1ccc(CN2CCN(Cc3[nH]c4ccc(OC)cc4c3C)CC2CCO)cc1` (stereo unspecified): the EC50 is 0.141 µM (active) in assay [5] and > 60 µM (not active) in assay [6].
On to `CCOC(=O)N1CCC(N2Cc3cccc(C(=O)Nc4ccc(F)cc4)c3C2=O)CC1`, for which the EC50 is 4.41 µM (active) in assay [2], > 150 µM (not active) in assay [1] and > 150 µM (not active) in assay [3].
As for `CN(C)CCCN(C(=O)c1ccco1)c1nc2c(F)cc(F)cc2s1`, the EC50 was 0.101 µM (active) in assay [5] and > 60 µM (not active) in assay [6].
Consider `COc1ccc(C2CC(C)(c3ccc(OC)cc3OC)Nc3ccccc3N2)c(OC)c1` (stereo unspecified), for which the EC50 was 1.96 µM (active) in assay [5] and > 60 µM (not active) in assay [6].
Regarding `C1CCC(C(C[C@@H]2CCCCN2)C2CCCCC2)CC1`, the AC50 in assay [4] was 6.31 µM (inconclusive).
`CCOC(=O)N1CCC(n2c(SCC(=O)Nc3ccccc3OC)nc3ccccc3c2=O)CC1`: the EC50 was 5.24 µM (active) in assay [5] and > 60 µM (not active) in assay [6].
Take `Cc1ccc(C(=O)C(c2ccccc2)N2Cc3ccccc3C2=N)cc1` (stereo unspecified): the EC50 in assay [2] was 5.37 µM (active); in assay [1] it was 4.15 µM (active); in assay [3] it was > 150 µM (not active).
Regarding `CC12CN3CC(C)(CN(C1)C31CCSCC1)C2=O`, the AC50 in assay [4] is 12.6 µM (inconclusive).
Take `Cc1cccc(/C=N/NC(=O)Cc2ccc(Cl)cc2)c1O`: the results for the EC50 in assay [2] and in assay [3] were 4.52 µM (active) and 7.4 µM (active), respectively.
For `CC[C@H]1OC(=O)C[C@@H](O)[C@H](C)[C@@H](O[C@@H]2O[C@H](C)C[C@H](N(C)C)[C@H]2O)[C@@H](CC=O)C[C@@H](C)C(=O)C=C[C@]2(C)O[C@H]2[C@@H]1C` the same measures were < 0.06 µM (active) and < 0.06 µM (active).
As for `C=CCc1cccc(/C=N/NC(=O)C(=O)Nc2ccc(C)cc2)c1O`, the EC50 in assay [2], in assay [1] and in assay [3] was > 150 µM (not active) each time.
For the compound `O=C(N/N=C/c1cn(-c2cccs2)nc1-c1ccccc1)c1ccc(O)cc1`, the AC50 in assay [7] was 8.96 µM (active).
With `Cc1cc(SCC(=O)N/N=C/c2ccc(O)cc2O)nc2ccccc12`, the AC50 in assay [7] is 4.06 µM (active). Also, the EC50 in assay [5] is 1.71 µM (active); in assay [6], 18.8 µM (active).
As to `Cc1ccccc1/C=N/Nc1nc2ccccc2[nH]1`, the EC50 in assay [2] is 146 µM (active); in assay [1] it was > 150 µM (not active); in assay [3], > 150 µM (not active).
With `Cc1cccc(CN2CCN(C(c3ccccc3)c3ccc(Cl)cc3)CC2)c1` (stereo unspecified) [MECLIZINE DIHCL], the AC50 in assay [7] was 3.57 µM (active).
